Results: US12139488B2, “Pyrido[3,2-d]pyrimidine compounds uses thereof for treating a proliferative disease” (Universite de Montreal, priority 2021, dated 2024)

What was measured:
[1] = test system: pERK in SW480 cells (KRAS G12D); assay: Phospho-ERK inhibition (AlphaLISA), SW480; type: cell-based, human; settings: SW480 cells; for SW480 pERK Ymin %: Ymin in brackets; for IC50: class symbol before the bracket
Procedure: (§1) All cancer cell lines (A375, A101D, A2058, RKO, HT29 SK-MEL 30, IPC298, HepG2, HCT-116, Lovo, SWV620, SW480, NCI-H358, NCI-H2122, Calu-6, NCIH2087, NCIH1755, NCIH1666 and Mewo) were obtained from ATCC and cultured in RPMI-1640 medium (Gibco) supplemented with 5% heat inactivated fetal bovine serum (FBS, Wisent) at 37° C. under 5% CO2. Cells were maintained in T175 flasks (Greiner). They were passaged by removing the culture medium, washing once in 10 mL of room temperature Phosphate Buffered Saline (PBS; Wisent) and incubating at 37° C. with 2 mL of 0.05% Trypsin (Thermo-Fisher). Trypsin was then inactivated by adding complete growth medium and the cells were then replated in a T175 culture dish at the appropriate dilution. All cell lines were routinely tested for mycoplasma contamination. Tissue type and mutational status of each cell line can be found in Table B.
(§2) AlphaLISA® SureFire® Ultra™ p-ERK 1/2 (Thr202/Tyr204) analysis was conducted on cells plated in 100 μL of complete RPMI-1640 growth medium in 96-well flat-bottomed transparent dishes (Costar) at a density indicated in Table C. Cells were maintained overnight at 37° C. under 5% CO2 before treatment with compounds' dilution series for one hour. The cell density in cells/cm^2 corresponds to cell number divided by the area of one well of a 96-well plate ([…]).
(§3) In a dilution series 100 μL/well of test substance dilution prepared in complete RPMI-1640 growth media was added to the cells. The dilution series is selected so that ten concentrations cover a range from 10 μM to 0.33 nM. If necessary the initial concentration of 10 μM is increased to 100 μM or lowered to 1 μM (as in the case of A375 and H1666 cells, which are generally more sensitive to the compounds) and further dilution is carried out accordingly. The final concentration of DMSO in the assay is set at 0.5%.
(§4) After treatment, media was removed and cells were lysed in 50 μL of 1× AlphaScreen Ultra Lysis Buffer (Perkin Elmer). The AlphaLISA® SureFire® Ultra™ p-ERK 1/2 (Thr202/Tyr2O4) (PerkinElmer) reactions were performed with 5 μL of cell lysate according to the manufacturer's specifications in 384-well proxyplates (Perkin Elmer) followed by overnight incubation of the reactions at room temperature in a humidified chamber. After completion of the reactions, the signals were recorded on an EnVision plate reader (Perkin Elmer) using built in AlphaLISA® settings.
(§5) The effect of each compound dilution on the pERK signal was expressed in % inhibition and calculated as follows. An internal 100% inhibition control ([…] trametinib, cat #HY-10999; MedChem Express; CAS #871700-17-3) was included in each plate and used as a measure of pERK background. First, the value obtained for trametinib was subtracted from each data point. The average of DMSO (vehicle) controls (set as 0% inhibition) was established and used to calculate % inhibition: % inhibition=100*(1-((pERK signalcompound)/(pERK signalDMSO)))
(§6) The ability of each compound to inhibit pERK signal was expressed as an IC50 value obtained by plotting the inhibition values for each data point of a dilution series and fitting the obtained curves using a log(agonist) versus response-variable slope (four parameters) function using GraphPadPrism (V7.0) or Dotmatics Screening Ultra platform.
(§7) When present, paradoxical pERK induction is inferred from the negative % inhibition values observed in the pERK IC50 curves of a compound.

[2] = test system: pERK in HCT-116 cells (KRAS G13D); assay: Phospho-ERK inhibition (AlphaLISA SureFire Ultra p-ERK 1/2), HCT116; type: cell-based, human; settings: HCT116 cells; for HCT116 pERK Ymin %: Ymin in brackets
Procedure: as §1, §2, §3, §4, §5, §6, §7

[3] = class symbol before the bracket

Nc1cccc2c1nnn2-c1ccc2ncnc(Nc3c(F)ccc(NS(=O)(=O)c4ccccc4Cl)c3F)c2n1 [Example 92]
SW480 pERK Ymin % [1]: 18% | IC50 [1]: < 500 nM | HCT116 pERK Ymin % [2]: −4.6% | IC50 [2, 3]: < 500 nM

COc1ccc(S(=O)(=O)Nc2ccc(F)c(Nc3ncnc4ccc(-n5cnc6c(NC(C)=O)cccc65)nc34)c2F)c(C)c1 [Ex 79]
SW480 pERK Ymin % [1]: 9.4% | IC50 [1]: 500 to 1000 nM | HCT116 pERK Ymin % [2]: 1.5% | IC50 [2, 3]: 500 to 1000 nM

COc1ccc(S(=O)(=O)Nc2ccc(F)c(Nc3ncnc4ccc(-c5ccsc5)nc34)c2F)c(C)c1 [Ex 58]
SW480 pERK Ymin % [1]: 2% | IC50 [1]: 1000 to 10000 nM | HCT116 pERK Ymin % [2]: −1% | IC50 [2, 3]: 10000 to 30000 nM

O=C(c1cn(-c2ccc3ncnc(Nc4c(F)ccc(NS(=O)(=O)c5ccccc5Cl)c4F)c3n2)c2ccccc12)N1CCOCC1 [Example 109]
SW480 pERK Ymin % [1]: −6.4% | IC50 [1]: < 500 nM | HCT116 pERK Ymin % [2]: −1.7% | IC50 [2, 3]: < 500 nM

COc1ccc(S(=O)(=O)Nc2ccc(F)c(Nc3ncnc4ccc(-c5cnc6ccccc6c5)nc34)c2F)c(C)c1 [Ex 61]
SW480 pERK Ymin % [1]: 3% | IC50 [1]: 1000 to 10000 nM | HCT116 pERK Ymin % [2]: −8% | IC50 [2, 3]: 1000 to 10000 nM

COc1ccc(S(=O)(=O)Nc2ccc(F)c(Nc3ncnc4ccc(-c5cnn(C)c5)nc34)c2F)c(C)c1 [Ex 65]
SW480 pERK Ymin % [1]: 14% | IC50 [1]: 500 to 1000 nM | HCT116 pERK Ymin % [2]: −7% | IC50 [2, 3]: 10000 to 30000 nM

COc1ccc(S(=O)(=O)Nc2ccc(F)c(Nc3ncnc4ccc(-n5ccnc5)nc34)c2F)cc1 [Ex 33]
SW480 pERK Ymin % [1]: 0% | IC50 [1]: 1000 to 10000 nM | HCT116 pERK Ymin % [2]: 5% | IC50 [2, 3]: 1000 to 10000 nM

COc1ccc(S(=O)(=O)Nc2ccc(F)c(Nc3ncnc4ccc(-c5cnc(OC)nc5)nc34)c2F)c(C)c1 [Ex 57]
SW480 pERK Ymin % [1]: -9% | IC50 [1]: 1000 to 10000 nM | HCT116 pERK Ymin % [2]: -8% | IC50 [2, 3]: 1000 to 10000 nM

COc1ccc(S(=O)(=O)Nc2ccc(F)c(Nc3ncnc4ccc(-c5ccncc5)nc34)c2F)c(C)c1 [Ex 63]
SW480 pERK Ymin % [1]: 10% | IC50 [1]: < 500 nM | HCT116 pERK Ymin % [2]: −2.1% | IC50 [2, 3]: 1000 to 10000 nM

COc1ccc(S(=O)(=O)Nc2ccc(F)c(Nc3ncnc4ccc(-c5ccc(OC)nc5)nc34)c2F)c(C)c1 [Example 71]
SW480 pERK Ymin % [1]: 8% | IC50 [1]: 1000 to 10000 nM | HCT116 pERK Ymin % [2]: −4% | IC50 [2, 3]: 1000 to 10000 nM

COc1ccc(S(=O)(=O)Nc2ccc(F)c(Nc3ncnc4ccc(-n5cc(C(N)=O)c6ccccc65)nc34)c2F)c(C)c1 [Example 69]
SW480 pERK Ymin % [1]: 3% | IC50 [1]: 1000 to 10000 nM | HCT116 pERK Ymin % [2]: −1% | IC50 [2, 3]: 1000 to 10000 nM

COc1ccc(S(=O)(=O)Nc2ccc(F)c(Nc3ncnc4ccc(-n5cnc(C)c5C)nc34)c2F)cc1 [Ex 32]
SW480 pERK Ymin % [1]: 2% | IC50 [1]: 1000 to 10000 nM | HCT116 pERK Ymin % [2]: 17% | IC50 [2, 3]: 1000 to 10000 nM

N#Cc1cccc(-c2ccc3ncnc(Nc4c(F)ccc(NS(=O)(=O)c5ccccc5Cl)c4F)c3n2)c1 [Ex 77]
SW480 pERK Ymin % [1]: 2% | IC50 [1]: 1000 to 10000 nM | HCT116 pERK Ymin % [2]: −8% | IC50 [2, 3]: 1000 to 10000 nM

COc1ccc(S(=O)(=O)Nc2ccc(F)c(Nc3ncnc4ccc(-c5cccc(CO)c5)nc34)c2F)c(C)c1 [Ex 74]
SW480 pERK Ymin % [1]: 3.3% | IC50 [1]: 1000 to 10000 nM | HCT116 pERK Ymin % [2]: 1% | IC50 [2, 3]: 1000 to 10000 nM

COc1ccc(S(=O)(=O)Nc2ccc(F)c(Nc3ncnc4ccc(-c5cn[nH]c5)nc34)c2F)c(C)c1 [Ex 64]
SW480 pERK Ymin % [1]: 16% | IC50 [1]: 1000 to 10000 nM | HCT116 pERK Ymin % [2]: 4% | IC50 [2, 3]: 1000 to 10000 nM

NC(=O)c1ccc(-c2ccc3ncnc(Nc4c(F)ccc(NS(=O)(=O)c5ccccc5Cl)c4F)c3n2)cc1 [Example 81]
SW480 pERK Ymin % [1]: 15% | IC50 [1]: 1000 to 10000 nM | HCT116 pERK Ymin % [2]: −4% | IC50 [2, 3]: 1000 to 10000 nM

COc1ccc(S(=O)(=O)Nc2ccc(F)c(Nc3ncnc4ccc(-c5cncnc5)nc34)c2F)c(C)c1 [Ex 56]
SW480 pERK Ymin % [1]: 7% | IC50 [1]: 500 to 1000 nM | HCT116 pERK Ymin % [2]: −9% | IC50 [2, 3]: 1000 to 10000 nM

NC(=O)c1cccc(-c2ccc3ncnc(Nc4c(F)ccc(NS(=O)(=O)c5ccccc5Cl)c4F)c3n2)c1 [Example 80]
SW480 pERK Ymin % [1]: 10% | IC50 [1]: 1000 to 10000 nM | HCT116 pERK Ymin % [2]: 11% | IC50 [2, 3]: 1000 to 10000 nM

Cc1c(Cl)cccc1S(=O)(=O)Nc1ccc(F)c(Nc2ncnc3ccc(-n4nc(C(=O)N5CCNCC5)c5ccccc54)nc23)c1F [Example 127]
SW480 pERK Ymin % [1]: −3.8% | IC50 [1]: < 500 nM | HCT116 pERK Ymin % [2]: −1.2% | IC50 [2, 3]: < 500 nM

COc1ccc(S(=O)(=O)Nc2ccc(F)c(Nc3ncnc4ccc(-c5cccc(O)c5)nc34)c2F)c(C)c1 [Ex 72]
SW480 pERK Ymin % [1]: −7% | IC50 [1]: 1000 to 10000 nM | HCT116 pERK Ymin % [2]: 1% | IC50 [2, 3]: 1000 to 10000 nM

O=S(=O)(Nc1ccc(F)c(Nc2ncnc3ccc(-n4cnc5c(CN6CC(F)C6)cccc54)nc23)c1F)c1ccccc1Cl [Example 227]
HCT116 pERK Ymin % [2]: −1.9% | IC50 [2, 3]: 500 to 1000 nM

O=S(=O)(Nc1ccc(F)c(Nc2ncnc3ccc(-n4cc(S(=O)(=O)N5CC(O)C5)c5ccccc54)nc23)c1F)c1cccc(Cl)c1Cl [Ex 455]
IC50 ([2]; class symbol): < 500 nM

Cc1c(F)cccc1S(=O)(=O)Nc1ccc(F)c(Nc2ncnc3ccc(-n4cnc5c(NCCO)cccc54)nc23)c1F [Example 350]
IC50 ([2]; class symbol): < 500 nM

O=S(=O)(Nc1ccc(F)c(Nc2ncnc3ccc(-n4cc(CC5CCN(CC(F)F)CS5(=O)=O)c5ccccc54)nc23)c1F)c1cccc(Cl)c1Cl (centres unmarked) [Example 488]
IC50 ([2]; class symbol): < 500 nM

CCCNc1cccc2c1ncn2-c1ccc2ncnc(Nc3c(F)ccc(NS(=O)(=O)c4cccc(Cl)c4Cl)c3F)c2n1 [Example 242]
HCT116 pERK Ymin % [2]: −7.4% | IC50 [2, 3]: 1000 to 10000 nM

Cc1c(F)cccc1S(=O)(=O)Nc1ccc(F)c(Nc2ncnc3ccc(-n4cnc(CO)c4)nc23)c1F [Ex 379]
IC50 ([2]; class symbol): 1000 to 10000 nM

COCCN(CCOC)c1cccc2c1ncn2-c1ccc2ncnc(Nc3c(F)ccc(NS(=O)(=O)c4cccc(F)c4C)c3F)c2n1 [Example 376]
IC50 ([2]; class symbol): 500 to 1000 nM

Cc1c(F)cccc1S(=O)(=O)Nc1ccc(F)c(Nc2ncnc3ccc(-n4ncc5c4CCCN5CCO)nc23)c1F [Example 425]
IC50 ([2]; class symbol): 500 to 1000 nM

O=S(=O)(Nc1ccc(F)c(Nc2ncnc3ccc(-n4cnc5c4CCCC5)nc23)c1F)c1cccc(Cl)c1Cl [Ex 463]
IC50 ([2]; class symbol): 500 to 1000 nM

Cc1c(F)cccc1S(=O)(=O)Nc1ccc(F)c(Nc2ncnc3ccc(-n4cc5c(n4)CCCN5C)nc23)c1F [Example 356]
IC50 ([2]; class symbol): < 500 nM
